Assay [1] has as its target hGYS1 enzyme (recombinant hGYS1/GN1 protein) (Homo sapiens (Human), UniProt P13807). Put plainly: GYS1 coupled enzyme assay (PK/LDH). The class given is biochemical. The settings on record: hGYS1/GN1 50 nM, UDP-Glucose 0.8 mM, G6P 1 mM; geometric mean of at least 2 runs.
The target of assay [2] is hGYS2 enzyme (recombinant hGYS2/GN1 protein) (Homo sapiens (Human), UniProt P54840). The experiment in a line: GYS2 coupled enzyme assay (PK/LDH). It counts as biochemical. The settings on record: geometric mean of at least 2 assay runs on separate days, read-out: Avg_IC50. The method, boiled down:
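hGYS2/GN1 200 nM; UDP-Glc 2 mM; glycogen 0.2%; G6P 2 mM; PEP 2 mM, NADH 0.6 mM, PK/LDH 20 U/mL. 50 mM Tris pH 7.5, MgCl2, KCl, BSA, TCEP, 2.5% DMSO. Kinetic A340, 10 min. IC50 = geomean of ≥2 runs.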

Chain of hGYS1 enzyme (recombinant hGYS1/GN1 protein) (P13807 whole entry): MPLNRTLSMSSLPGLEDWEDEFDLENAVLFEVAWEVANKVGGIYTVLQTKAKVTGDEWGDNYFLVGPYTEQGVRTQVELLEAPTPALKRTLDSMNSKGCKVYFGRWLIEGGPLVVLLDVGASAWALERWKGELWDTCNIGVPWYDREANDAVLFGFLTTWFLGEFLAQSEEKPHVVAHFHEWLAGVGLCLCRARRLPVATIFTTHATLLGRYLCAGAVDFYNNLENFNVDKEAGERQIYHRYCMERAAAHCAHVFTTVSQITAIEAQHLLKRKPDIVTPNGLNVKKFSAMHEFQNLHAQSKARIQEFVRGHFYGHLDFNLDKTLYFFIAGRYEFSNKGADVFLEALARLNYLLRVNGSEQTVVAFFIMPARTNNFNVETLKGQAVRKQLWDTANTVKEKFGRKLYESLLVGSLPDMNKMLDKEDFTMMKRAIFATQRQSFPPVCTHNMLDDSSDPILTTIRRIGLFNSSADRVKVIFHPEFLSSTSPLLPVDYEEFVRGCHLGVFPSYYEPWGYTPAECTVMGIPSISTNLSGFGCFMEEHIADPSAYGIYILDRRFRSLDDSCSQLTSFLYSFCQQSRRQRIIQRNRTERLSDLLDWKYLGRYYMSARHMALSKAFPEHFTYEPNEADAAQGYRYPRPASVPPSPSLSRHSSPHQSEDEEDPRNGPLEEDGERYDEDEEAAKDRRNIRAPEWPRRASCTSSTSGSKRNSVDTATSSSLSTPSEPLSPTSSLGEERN
Chain of hGYS1 enzyme (recombinant hGYS1/GN1 protein) (P46976 whole entry partner): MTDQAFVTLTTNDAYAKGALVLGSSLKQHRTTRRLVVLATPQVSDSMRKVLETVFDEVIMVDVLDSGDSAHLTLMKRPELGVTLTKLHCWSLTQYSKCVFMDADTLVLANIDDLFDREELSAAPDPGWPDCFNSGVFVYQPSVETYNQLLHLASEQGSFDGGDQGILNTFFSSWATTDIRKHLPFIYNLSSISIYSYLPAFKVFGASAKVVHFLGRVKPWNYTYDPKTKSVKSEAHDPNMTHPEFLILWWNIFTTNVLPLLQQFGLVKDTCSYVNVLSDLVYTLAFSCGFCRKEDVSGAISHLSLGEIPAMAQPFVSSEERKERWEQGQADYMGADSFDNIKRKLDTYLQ
Chain of hGYS2 enzyme (recombinant hGYS2/GN1 protein) (P54840 whole entry): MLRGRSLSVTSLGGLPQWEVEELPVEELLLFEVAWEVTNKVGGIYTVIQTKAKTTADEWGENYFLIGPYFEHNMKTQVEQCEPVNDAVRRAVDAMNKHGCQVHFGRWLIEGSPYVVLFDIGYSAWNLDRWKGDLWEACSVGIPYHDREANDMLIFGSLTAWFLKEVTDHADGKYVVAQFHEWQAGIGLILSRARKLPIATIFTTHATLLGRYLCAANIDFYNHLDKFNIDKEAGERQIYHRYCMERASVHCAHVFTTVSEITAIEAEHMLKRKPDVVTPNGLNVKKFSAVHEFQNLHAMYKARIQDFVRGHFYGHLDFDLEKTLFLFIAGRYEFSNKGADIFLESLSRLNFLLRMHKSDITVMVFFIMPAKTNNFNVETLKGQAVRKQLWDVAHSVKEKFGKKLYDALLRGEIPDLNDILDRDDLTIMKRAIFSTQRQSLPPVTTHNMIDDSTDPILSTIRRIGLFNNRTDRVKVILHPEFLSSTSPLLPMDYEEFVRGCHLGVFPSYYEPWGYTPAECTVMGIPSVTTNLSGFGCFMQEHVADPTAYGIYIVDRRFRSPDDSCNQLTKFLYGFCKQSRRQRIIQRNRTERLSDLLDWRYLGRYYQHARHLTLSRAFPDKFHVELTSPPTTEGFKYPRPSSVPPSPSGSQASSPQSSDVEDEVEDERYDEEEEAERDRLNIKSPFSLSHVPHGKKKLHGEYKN
Chain of hGYS2 enzyme (recombinant hGYS2/GN1 protein) (P46976 whole entry partner): as the sequence (P46976 whole entry partner) above

`Cc1nc(CC(=O)N2C[C@H](F)C[C@H]2C(=O)N[C@@H](c2ccccc2)c2ccc(C(C)C)cc2)cs1` [Compound 52, (2S,4R)-4-fluoro-1-[2-(2-methyl-1,3-thiazol-4-yl)acetyl]-N-[(S)-phenyl[4-(propan-2-yl)phenyl]methyl]pyrrolidine-2-carboxamide]: the IC50 in assay [1] is 37 nM; in assay [2], > 100000 nM.

Regarding `CC(=O)N1CC2(CC(C(=O)N3C[C@H](F)C[C@H]3C(=O)N[C@@H](c3ccccc3)c3ccc(C(C)C)cc3)=NO2)C1` [Compound 151, (2S,4R)-1-{2-acetyl-5-oxa-2,6-diazaspiro[3.4]oct-6-ene-7-carbonyl}-4-fluoro-N-[(S)-phenyl[4-(propan-2-yl)phenyl]methyl]pyrrolidine-2-carboxamide], the IC50 is 241 nM in assay [1] and > 100000 nM in assay [2].

`CC(C)c1ccc([C@@H](NC(=O)[C@@H]2C[C@@H](F)CN2C(=O)Cc2ccccn2)c2ccccc2)cc1` [Compound 37, (2S,4R)-4-fluoro-N-[(S)-phenyl[4-(propan-2-yl)phenyl]methyl]-1-[2-(pyridin-2-yl)acetyl]pyrrolidine-2-carboxamide]: the results for the IC50 in assay [1] and in assay [2] were 45 nM and > 100000 nM, respectively.

On to `Cc1cc(CC(=O)N2C[C@H](F)C[C@H]2C(=O)N[C@@H](c2ccccc2)c2ccc(C(C)C)cc2)nn1C` [Compound 83, (2S,4R)-1-[2-(1,5-dimethyl-1H-pyrazol-3-yl)acetyl]-4-fluoro-N-[(S)-phenyl[4-(propan-2-yl)phenyl]methyl]pyrrolidine-2-carboxamide], for which the IC50 is 15 nM in assay [1] and > 100000 nM in assay [2].

In the case of `CC(C)c1ccc([C@@H](NC(=O)[C@@H]2C[C@@H](F)CN2C(=O)Cc2cnn[nH]2)c2ccc(F)cc2)cc1F` [Compound 646, (2S,4R)-4-fluoro-N-[(S)-[3-fluoro-4-(propan-2-yl)phenyl](4-fluorophenyl)methyl]-1-[2-(1H-1,2,3-triazol-5-yl)acetyl]pyrrolidine-2-carboxamide], the figures for the IC50 in assay [1] and in assay [2] were 48 nM and > 100000 nM, respectively.

`CC(C)c1ccc([C@@H](NC(=O)[C@@H]2C[C@@H](F)CN2C(=O)CCc2cn[nH]c2)c2ccccc2)cc1` [Compound 46, (2S,4R)-4-fluoro-N-[(S)-phenyl[4-(propan-2-yl)phenyl]methyl]-1-[3-(1H-pyrazol-4-yl)propanoyl]pyrrolidine-2-carboxamide]: the IC50 is 136 nM in assay [1] and > 100000 nM in assay [2].

Consider `CC(C)c1ccc([C@@H](NC(=O)[C@@H]2C[C@@H](F)CN2C(=O)CS(=O)(=O)N2CCCC2)c2ccccc2)cc1` [Compound 129, (2S,4R)-4-fluoro-N-[(S)-phenyl[4-(propan-2-yl)phenyl]methyl]-1-[2-(pyrrolidine-1-sulfonyl)acety]pyrrolidine-2-carboxamide], for which the IC50 in assay [1] was 217 nM; in assay [2], > 100000 nM.

Consider `CC(C)c1ccc([C@@H](NC(=O)[C@@H]2C[C@@H]3C[C@@H]3N2C(=O)Cc2cnn[nH]2)c2ccccc2)cc1F` [Compound 324, (1S,3S,5S)-N-[(S)-[3-fluoro-4-(propan-2-yl)phenyl](phenyl)methyl]-2-[2-(1H-1,2,3-triazol-5-yl)acetyl]-2-azabicyclo[3.1.0]hexane-3-carboxamide], for which the IC50 in assay [1] is 142 nM; in assay [2], > 100000 nM.

As for `CC(C)c1ccc([C@@H](NC(=O)[C@@H]2C[C@@H](F)CN2C(=O)Cc2nnco2)c2ccccc2)cc1` (stereo in doubt) [Compound 224, (2RS,4R)-4-fluoro-1-[2-(1,3,4-oxadiazol-2-yl)acetyl]-N-[(S)-phenyl[4-(propan-2-yl)phenyl]methyl]pyrrolidine-2-carboxamide], the IC50 in assay [1] is 70 nM; in assay [2] it was > 100000 nM.

`CC(C)c1ccc([C@@H](NC(=O)[C@@H]2C[C@@H](F)CN2C(=O)CNC(=O)N2CCN(C(=O)OC(C)(C)C)CC2)c2ccccc2)cc1F` [Compound 366, tert-butyl 4-({2-[(2S,4R)-4-fluoro-2-{[(S)-[3-fluoro-4-(propan-2-yl)phenyl](phenyl)methyl]carbamoyl}pyrrolidin-1-yl]-2-oxoethyl}carbamoyl) piperazine-1-carboxylate]: the IC50 in assay [1] was 20 nM; in assay [2] it was > 100000 nM.

In the case of `Cc1ccn(CC(=O)N2C[C@H](F)C[C@H]2C(=O)N[C@@H](c2ccccc2)c2ccc(C(C)C)cc2)n1` [Compound 55, (2S,4R)-4-fluoro-1-[2-(3-methyl-1H-pyrazol-1-yl)acetyl]-N-[(S)-phenyl[4-(propan-2-yl)phenyl]methyl]pyrrolidine-2-carboxamide], the IC50 is 43 nM in assay [1] and > 100000 nM in assay [2].

For `O=C(N[C@@H](c1ccccc1)c1ccc(C2CC2)c(F)c1)[C@@H]1C[C@@H](F)CN1C(=O)Cn1cccn1` [Compound 435, (2S,4R)-N-[(S)-(4-cyclopropyl-3-fluorophenyl)(phenyl)methyl]-4-fluoro-1-[2-(1H-pyrazol-1-yl)acetyl]pyrrolidine-2-carboxamide], the figures for the IC50 in assay [1] and in assay [2] were 149 nM and > 100000 nM, respectively.

Regarding `CC(=O)NCC(=O)N1CCC[C@H]1C(=O)N[C@@H](c1ccccc1)c1ccc(C2CC2)c(F)c1` [Compound 421, (2S)-N-[(S)-(4-cyclopropyl-3-fluorophenyl)(phenyl)methyl]-1-(2-acetamidoacetyl) pyrrolidine-2-carboxamide], the IC50 in assay [1] is 294 nM; in assay [2], > 100000 nM.

`COc1cccnc1CCC(=O)N1C[C@H](F)C[C@H]1C(=O)N[C@@H](c1ccccc1)c1ccc(C(C)C)cc1` [Compound 135, (2S,4R)-4-fluoro-1-[3-(3-methoxypyridin-2-yl)propanoyl]-N-[(S)-phenyl[4-(propan-2-yl)phenyl]methyl]pyrrolidine-2-carboxamide]: the IC50 in assay [1] is 44 nM; in assay [2], > 100000 nM.

As for `CC(C)c1ccc([C@@H](NC(=O)[C@@H]2C[C@@H](F)CN2C(=O)Cc2ccnn2C)c2ccccc2)cc1F` [Compound 337, (2S,4R)-4-fluoro-N-[(S)-[3-fluoro-4-(propan-2-yl)phenyl](phenyl)methyl]-1-[2-(1-methyl-1H-pyrazol-5-yl)acetyl]pyrrolidine-2-carboxamide], the IC50 in assay [1] was 27 nM; in assay [2], > 100000 nM.

Turning to `O=C(N[C@@H](c1ccccc1)c1ccc(C2CC2)c(F)c1)[C@@H]1C[C@@H](F)CN1C(=O)CCc1ncco1` [Compound 422, (2S,4R)-N-[(S)-(4-cyclopropyl-3-fluorophenyl)(phenyl)methyl]-4-fluoro-1-[3-(1,3-oxazol-2-yl)propanoyl]pyrrolidine-2-carboxamide], the IC50 is 166 nM in assay [1] and > 100000 nM in assay [2].

Take `CC(C)c1ccc([C@@H](NC(=O)[C@@H]2C[C@@H](F)CN2C(=O)C(C)c2ccccn2)c2ccccc2)cc1` (stereo partly drawn) [Compound 64, (2S,4R)-4-fluoro-N-[(S)-phenyl[4-(propan-2-yl)phenyl]methyl]-1-[2-(pyridin-2-yl)propanoyl]pyrrolidine-2-carboxamide]: the IC50 was 81 nM in assay [1] and > 100000 nM in assay [2].

Turning to `CC(C)c1ccc([C@@H](NC(=O)[C@@H]2C[C@@H](F)CN2C(=O)Cn2cncn2)c2ccccc2)cc1` [Compound 16, (2S,4R)-4-fluoro-N-[(S)-phenyl[4-(propan-2-yl)phenyl]methyl]-1-[2-(1H-1,2,4-triazol-1-yl)acetyl]pyrrolidine-2-carboxamide], the IC50 in assay [1] is 33 nM; in assay [2] it was > 100000 nM.

For `CC(C)c1ccc([C@@H](NC(=O)[C@@H]2C[C@@H](F)CN2C(=O)Cc2cnccn2)c2ccccc2)cc1F` [Compound 344], the IC50 in assay [1] was 13 nM; in assay [2], > 100000 nM.

Turning to `COc1ccc(CC(=O)N2C[C@H](F)C[C@H]2C(=O)N[C@@H](c2ccccc2)c2ccc(C(C)C)cc2)c(C#N)c1` [Compound 133, (2S,4R)-1-[2-(2-cyano-4-methoxyphenyl)acetyl]-4-fluoro-N-[(S)-phenyl[4-(propan-2-yl)phenyl]methyl]pyrrolidine-2-carboxamide], the IC50 in assay [1] was 10 nM; in assay [2], > 100000 nM.

In the case of `CC(C)c1ccc([C@@H](NC(=O)[C@@H]2C[C@@H](F)CN2C(=O)Cc2cnc3ccccn23)c2ccccc2)cc1` [Compound 121], the IC50 in assay [1] was 15 nM; in assay [2], > 100000 nM.

On to `CC(C)c1ccc([C@@H](NC(=O)[C@@H]2C[C@@H](F)CN2C(=O)CCn2ccnn2)c2ccccc2)cc1` [Compound 11, (2S,4R)-4-fluoro-N-[(S)-phenyl[4-(propan-2-yl)phenyl]methyl]-1-[3-(1H-1,2,3-triazol-1-yl)propanoyl]pyrrolidine-2-carboxamide], for which the IC50 in assay [1] is 91 nM; in assay [2], > 100000 nM.

Take `CC(C)c1ccc([C@@H](NC(=O)[C@@H]2C[C@@H](F)CN2C(=O)CCc2ccc(=O)[nH]n2)c2ccccc2)cc1` [Compound 114, (2S,4R)-4-fluoro-1-[3-(6-oxo-1,6-dihydropyridazin-3-yl)propanoyl]-N-[(S)-phenyl[4-(propan-2-yl)phenyl]methyl]pyrrolidine-2-carboxamide]: the IC50 in assay [1] was 208 nM; in assay [2], > 100000 nM.

On to `O=C(N[C@@H](c1ccccc1)c1ccc(C2CC2)c(F)c1)[C@@H]1C[C@@H](F)CN1C(=O)Cc1cccc2ncccc12` [Compound 443, (2S,4R)-N-[(S)-(4-cyclopropyl-3-fluorophenyl)(phenyl)methyl]-4-fluoro-1-[2-(quinolin-5-yl)acetyl]pyrrolidine-2-carboxamide], for which the IC50 was 28 nM in assay [1] and > 100000 nM in assay [2].

For `CC(C)c1ccc([C@@H](NC(=O)[C@@H]2C[C@@H](F)CN2C(=O)C2CCNC(=O)C2)c2ccccc2)cc1` (stereo partly drawn) [Compound 93, (2S,4R)-4-fluoro-1-(2-oxopiperidin-4-carbonyl)-N-[(S)-phenyl[4-(propan-2-yl)phenyl]methyl]pyrrolidine-2-carboxamide], the IC50 in assay [1] was 108 nM; in assay [2] it was > 100000 nM.

(Values after patent US11814367B2, “Inhibitors of glycogen synthase 1 (GYS1) and methods of use thereof” (Maze Therapeutics, Inc., priority 2021, dated 2023).)
